The source made the active and inactive calls. The rule behind the calls is not given here.
Columns and labels:
[1] = target: 4-hydroxyphenylpyruvate dioxygenase (Rattus norvegicus, UniProt P32755); assay: Inhibition of Rattus norvegicus (rat) 4-hydroxyphenylpyruvate dioxygenase assessed as formation of homogentisate by HGA dioxygenase coupling enzyme assay; settings: read-out: I50
[2] = target: T1, 4-hydroxyphenylpyruvate dioxygenase (Arabidopsis thaliana, UniProt P93836); assay: Inhibition of Arabidopsis thaliana 4-hydroxyphenylpyruvate dioxygenase assessed as formation of homogentisate by HGA dioxygenase coupling enzyme assay; settings: read-out: I50
T1 sequence (P93836 whole entry): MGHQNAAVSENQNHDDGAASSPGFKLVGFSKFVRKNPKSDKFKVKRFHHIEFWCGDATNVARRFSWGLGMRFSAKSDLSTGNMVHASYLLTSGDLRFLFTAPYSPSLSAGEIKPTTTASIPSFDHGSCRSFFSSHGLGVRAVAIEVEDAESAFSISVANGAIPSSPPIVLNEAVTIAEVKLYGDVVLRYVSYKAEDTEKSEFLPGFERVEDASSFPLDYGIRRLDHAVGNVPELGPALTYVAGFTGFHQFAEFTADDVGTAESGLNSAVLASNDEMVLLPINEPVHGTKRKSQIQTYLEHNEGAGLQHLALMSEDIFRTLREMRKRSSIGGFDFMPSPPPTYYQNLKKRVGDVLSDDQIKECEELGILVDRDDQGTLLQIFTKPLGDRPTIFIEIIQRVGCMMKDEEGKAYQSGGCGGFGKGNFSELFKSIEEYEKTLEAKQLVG

[3] = target: 4-hydroxyphenylpyruvate dioxygenase (Rattus norvegicus) (UniProt P32755); assay: Inhibition of Rattus norvegicus (rat) 4-hydroxyphenylpyruvate dioxygenase assessed as formation of homogentisate upto 20 uM by HGA dioxygenase coupling enzyme assay
Sequence of 4-hydroxyphenylpyruvate dioxygenase (Rattus norvegicus) (P32755 whole entry): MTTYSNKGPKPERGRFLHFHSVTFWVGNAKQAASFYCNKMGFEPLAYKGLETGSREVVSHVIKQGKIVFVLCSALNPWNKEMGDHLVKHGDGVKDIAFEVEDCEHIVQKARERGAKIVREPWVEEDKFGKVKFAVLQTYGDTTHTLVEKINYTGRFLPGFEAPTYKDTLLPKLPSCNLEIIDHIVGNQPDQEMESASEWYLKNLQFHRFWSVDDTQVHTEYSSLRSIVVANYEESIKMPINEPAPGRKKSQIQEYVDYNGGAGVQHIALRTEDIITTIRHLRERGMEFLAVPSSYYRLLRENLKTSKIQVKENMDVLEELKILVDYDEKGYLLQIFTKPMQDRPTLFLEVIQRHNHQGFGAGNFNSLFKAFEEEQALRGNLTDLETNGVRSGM

Sequence of 4-hydroxyphenylpyruvate dioxygenase (Rattus norvegicus, UniProt P32755) (P32755 whole entry): as above

Structure (SMILES)	IC50 [1] [nM]	IC50 [2] [nM]	inhibition [3]
COc1ccc(-c2c(S(C)(=O)=O)ccc(C(=O)c3cnn(C(C)(C)C)c3O)c2C)cc1	< 20	7	
CC(C)(C)n1nc(-c2ccc(Cl)cc2Cl)c(C(=O)c2ccc(S(C)(=O)=O)cc2Cl)c1O			inactive

Source: ChEMBL document CHEMBL3046924 (Biochemistry, 2004)
